For test [1], the target named is serotonin reuptake inhibitor (Homo sapiens, UniProt P31645). The following applies: very weak activity; Tatsumi et al [1997]; cited from earlier work.
The target in the next test is 5-HT6 (h) (Homo sapiens, UniProt P50406). Put plainly: biochemical. The conditions noted are these: read-out: % Inhib. The source says: (§1) Briefly, recombinant 5-HT7 receptors were expressed in a CHO cell line. The receptors were then saturated with a tritiated receptor-specific ligand at concentrations known to be saturating.
Chain of 5-HT6 (h) (P50406 whole entry): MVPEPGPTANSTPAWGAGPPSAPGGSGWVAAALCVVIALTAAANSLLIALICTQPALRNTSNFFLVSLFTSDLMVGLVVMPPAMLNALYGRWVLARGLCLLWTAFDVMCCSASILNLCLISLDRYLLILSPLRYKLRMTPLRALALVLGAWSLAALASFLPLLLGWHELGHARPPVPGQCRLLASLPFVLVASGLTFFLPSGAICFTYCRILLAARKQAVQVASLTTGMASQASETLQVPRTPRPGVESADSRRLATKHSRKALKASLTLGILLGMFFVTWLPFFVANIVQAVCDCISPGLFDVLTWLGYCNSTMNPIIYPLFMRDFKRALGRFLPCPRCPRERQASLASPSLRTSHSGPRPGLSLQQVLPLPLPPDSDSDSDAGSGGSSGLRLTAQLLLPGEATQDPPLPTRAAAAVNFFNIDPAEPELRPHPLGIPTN
Another test concerns the target 5-HT3 (h) (Homo sapiens, UniProt P46098). Put plainly: biochemical. The following applies: read-out: % Inhib.
Source text: as §1

For another test, the target named is 5-HT1D (Rattus norvegicus, UniProt P28565). As to the kind of experiment: biochemical. The conditions noted are these: read-out: % Inhib.
Chain of 5-HT1D (P28565 whole entry): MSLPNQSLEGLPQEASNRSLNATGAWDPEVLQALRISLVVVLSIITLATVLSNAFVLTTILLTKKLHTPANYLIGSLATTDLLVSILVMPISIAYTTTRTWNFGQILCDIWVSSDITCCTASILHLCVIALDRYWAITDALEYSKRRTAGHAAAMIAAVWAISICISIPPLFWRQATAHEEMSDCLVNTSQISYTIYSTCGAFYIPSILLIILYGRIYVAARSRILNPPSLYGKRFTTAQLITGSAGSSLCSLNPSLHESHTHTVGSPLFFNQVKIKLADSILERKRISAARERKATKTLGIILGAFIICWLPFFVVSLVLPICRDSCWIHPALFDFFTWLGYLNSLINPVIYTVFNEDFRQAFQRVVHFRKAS
Source text: as §1

A further test addresses 5-HT4e (h) (Homo sapiens, UniProt Q13639). Put plainly: biochemical. The conditions noted are these: read-out: % Inhib.
Source text: as §1

In a further test the target is 5-HT5A (h) (Homo sapiens, UniProt P47898). Put plainly: biochemical. The conditions noted are these: read-out: % Inhib.
Chain of 5-HT5A (h) (P47898 whole entry): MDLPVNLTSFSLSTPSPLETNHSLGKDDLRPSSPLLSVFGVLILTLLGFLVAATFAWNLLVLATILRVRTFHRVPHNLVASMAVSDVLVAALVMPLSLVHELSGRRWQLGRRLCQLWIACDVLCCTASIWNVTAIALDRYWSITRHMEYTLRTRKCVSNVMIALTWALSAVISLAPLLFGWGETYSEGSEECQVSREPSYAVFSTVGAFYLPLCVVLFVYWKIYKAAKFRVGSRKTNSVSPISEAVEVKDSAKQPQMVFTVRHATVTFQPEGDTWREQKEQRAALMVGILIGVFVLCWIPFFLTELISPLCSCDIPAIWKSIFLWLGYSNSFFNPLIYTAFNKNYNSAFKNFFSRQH
Source text: as §1

Test [2] has as its target noradrenergic reuptake transporters (Homo sapiens, UniProt P23975). The conditions noted are these: Tatsumi et al [1997]; cited from earlier work.
In a further test the target is 5-HT7 (h) (Homo sapiens, UniProt P34969). The conditions noted are these: range of concentrations; FIG. 2. The method, then: The apparent dissociation constants for antagonists Kb were calculated using the modified Cheng Prusoff equation.
Chain of 5-HT7 (h) (P34969 whole entry): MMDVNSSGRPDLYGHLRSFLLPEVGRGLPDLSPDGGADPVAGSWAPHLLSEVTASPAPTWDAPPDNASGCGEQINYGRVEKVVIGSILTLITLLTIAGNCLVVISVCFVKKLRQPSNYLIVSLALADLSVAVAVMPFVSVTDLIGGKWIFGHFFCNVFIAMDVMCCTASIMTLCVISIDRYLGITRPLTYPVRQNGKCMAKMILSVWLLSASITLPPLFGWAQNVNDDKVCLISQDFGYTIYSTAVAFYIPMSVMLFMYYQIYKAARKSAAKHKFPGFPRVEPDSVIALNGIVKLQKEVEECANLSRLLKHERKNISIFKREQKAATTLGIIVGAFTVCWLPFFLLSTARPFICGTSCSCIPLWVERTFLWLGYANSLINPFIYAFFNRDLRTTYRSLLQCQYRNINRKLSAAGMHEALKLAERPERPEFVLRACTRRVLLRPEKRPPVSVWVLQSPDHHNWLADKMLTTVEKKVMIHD
For test [3] the following is noted: background statement; cited from earlier work.

Chain of serotonin reuptake inhibitor (P31645 whole entry): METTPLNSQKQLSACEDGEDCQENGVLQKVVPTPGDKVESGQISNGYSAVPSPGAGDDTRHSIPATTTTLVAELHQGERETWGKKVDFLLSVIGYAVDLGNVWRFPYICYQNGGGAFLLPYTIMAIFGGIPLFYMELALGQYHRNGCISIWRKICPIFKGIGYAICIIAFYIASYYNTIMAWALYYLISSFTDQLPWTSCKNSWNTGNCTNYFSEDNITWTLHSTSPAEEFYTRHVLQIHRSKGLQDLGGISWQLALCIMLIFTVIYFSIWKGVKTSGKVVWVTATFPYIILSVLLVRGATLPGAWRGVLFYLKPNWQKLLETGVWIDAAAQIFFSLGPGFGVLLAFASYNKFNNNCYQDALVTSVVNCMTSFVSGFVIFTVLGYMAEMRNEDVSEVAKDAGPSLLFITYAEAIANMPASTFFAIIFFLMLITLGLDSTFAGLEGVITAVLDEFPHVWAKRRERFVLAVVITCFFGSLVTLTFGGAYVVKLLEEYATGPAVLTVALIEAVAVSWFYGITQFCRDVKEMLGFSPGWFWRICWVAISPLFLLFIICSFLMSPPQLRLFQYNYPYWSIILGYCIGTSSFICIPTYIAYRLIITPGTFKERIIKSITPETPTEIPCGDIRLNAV
Chain of 5-HT4e (h) (Q13639 1-378 isoform Q13639-5): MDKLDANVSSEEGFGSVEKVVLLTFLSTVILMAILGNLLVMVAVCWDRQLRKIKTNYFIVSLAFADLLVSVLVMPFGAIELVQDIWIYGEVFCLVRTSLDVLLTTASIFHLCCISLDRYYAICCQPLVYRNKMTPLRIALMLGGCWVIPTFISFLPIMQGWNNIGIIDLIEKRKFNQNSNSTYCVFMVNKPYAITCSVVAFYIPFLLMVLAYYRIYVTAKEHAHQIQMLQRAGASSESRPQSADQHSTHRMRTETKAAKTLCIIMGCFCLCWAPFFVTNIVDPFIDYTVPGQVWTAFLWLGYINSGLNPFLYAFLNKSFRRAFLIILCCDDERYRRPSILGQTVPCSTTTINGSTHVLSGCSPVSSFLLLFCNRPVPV
Chain of noradrenergic reuptake transporters (P23975 whole entry): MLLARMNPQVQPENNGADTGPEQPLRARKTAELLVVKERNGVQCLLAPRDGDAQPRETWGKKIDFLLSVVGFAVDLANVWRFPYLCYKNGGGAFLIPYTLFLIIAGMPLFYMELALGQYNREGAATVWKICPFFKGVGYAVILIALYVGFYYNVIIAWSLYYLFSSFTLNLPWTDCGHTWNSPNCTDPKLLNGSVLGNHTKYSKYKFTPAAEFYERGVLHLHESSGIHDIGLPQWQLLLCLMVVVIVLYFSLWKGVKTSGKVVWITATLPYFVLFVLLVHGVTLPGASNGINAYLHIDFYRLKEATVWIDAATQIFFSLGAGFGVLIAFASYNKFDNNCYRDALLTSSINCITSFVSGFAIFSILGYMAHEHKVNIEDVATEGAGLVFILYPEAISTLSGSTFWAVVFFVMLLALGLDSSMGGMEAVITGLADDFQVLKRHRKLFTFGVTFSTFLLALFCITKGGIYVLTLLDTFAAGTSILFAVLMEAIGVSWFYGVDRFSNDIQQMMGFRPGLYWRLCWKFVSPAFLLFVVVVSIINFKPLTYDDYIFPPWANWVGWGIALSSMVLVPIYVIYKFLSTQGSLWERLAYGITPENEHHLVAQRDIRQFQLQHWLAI
Chain of 5-HT3 (h) (P46098 24-478): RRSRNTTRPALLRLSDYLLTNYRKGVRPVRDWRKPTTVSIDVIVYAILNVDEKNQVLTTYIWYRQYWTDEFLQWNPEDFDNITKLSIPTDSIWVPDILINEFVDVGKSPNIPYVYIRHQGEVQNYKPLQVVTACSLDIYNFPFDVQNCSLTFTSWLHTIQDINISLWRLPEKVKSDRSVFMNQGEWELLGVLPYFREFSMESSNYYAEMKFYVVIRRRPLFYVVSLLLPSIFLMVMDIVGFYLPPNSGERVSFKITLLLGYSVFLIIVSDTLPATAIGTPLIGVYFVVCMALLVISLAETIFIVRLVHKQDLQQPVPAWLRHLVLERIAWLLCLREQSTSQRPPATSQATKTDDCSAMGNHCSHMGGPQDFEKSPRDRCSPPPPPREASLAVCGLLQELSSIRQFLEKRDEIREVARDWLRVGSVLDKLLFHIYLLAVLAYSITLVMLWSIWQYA

With `CCOc1ccccc1OCC1CNCCO1` (racemic) [viloxazine, Viloxazine], the “activity at the serotonin reuptake inhibitor” value in test [1] was 17.3 μm. At 5-HT6 (h), the inhibition at 0.002 µM is 6%. On 5-HT3 (h), the inhibition at 0.0005 µM worked out at 18%. The inhibition at 0.001 µM was found to be 18% at 5-HT1D and 15% at 5-HT5A (h). Besides, the inhibition at 0.0003 µM on 5-HT4e (h) was found to be 16%. The “inhibition of noradrenergic reuptake transporters” value in test [2] is reported as 155 nM. Also, the “agonist effect (cAMP response)” value on 5-HT7 (h) was “no measurable response”.
In the case of `CCOc1ccccc1OC[C@@H]1CNCCO1` (single isomer, unassigned) [S(−)-isomer], the “pharmacological activity relative to R(+)-isomer” value in test [3] is reported as “five times more pharmacologically active than the R(+)-isomer”.

The values above are taken from US20120115871A1, “METHOD OF TREATMENT OF DEPRESSION” (Supemus Pharmaceuticals, Inc, priority 2009, published 2012).
